Assays:
Panc-1 cells = assay: Confocal fluorescence imaging of FITC labeled peptides in cells; assay type: cell-based; conditions: confocal microscope, Panc-1 cells
Description: To examine whether PRTC could permeate into pancreatic cancer cells, we synthesized fluorescein isothiocyanate (FITC) labeled PRTC, PRTC-m, PRTC-v, PRTC-r (PRTC without RRRRK) as well as TAT (a widely used cell penetrating peptide, as a positive control).
Figure 3 Identification of the permeability of PRTC in Panc-1 cells. (A) Entry of FITC- labeled peptides into Panc-1 cells tested by flow cytometry. FITC-TAT is the positive control. Measurements were performed in triplicate. (B) Quantification of cellular uptake of Panc-1 cells treated with different concentrations of FITC-PRTC. (C) Confocal microscope images of Panc-1 cells treated with 10 μM FITC labeled peptides. Scale bars, 10 μm. (D) Confocal microscope images of Panc-1 cells treated with different dosages of FITC-PRTC. Scale bars, 10 μm.

[1] = target: T1, endogenous CREPT protein in Panc-1 cells (Homo sapiens, UniProt Q9NQG5); assay: Immunofluorescence staining of CREPT in cells treated with FITC-PRTC; assay type: cell-based; conditions: immunofluorescence with anti-CREPT antibody
T1 construct: endogenous protein level of CREPT in Panc-1, AsPc-1 and MIA-PaCa-2 cells; endogenous in cells; host or cells: Panc-1, AsPc-1, MIA PaCa-2
T1 sequence (Q9NQG5 1-326): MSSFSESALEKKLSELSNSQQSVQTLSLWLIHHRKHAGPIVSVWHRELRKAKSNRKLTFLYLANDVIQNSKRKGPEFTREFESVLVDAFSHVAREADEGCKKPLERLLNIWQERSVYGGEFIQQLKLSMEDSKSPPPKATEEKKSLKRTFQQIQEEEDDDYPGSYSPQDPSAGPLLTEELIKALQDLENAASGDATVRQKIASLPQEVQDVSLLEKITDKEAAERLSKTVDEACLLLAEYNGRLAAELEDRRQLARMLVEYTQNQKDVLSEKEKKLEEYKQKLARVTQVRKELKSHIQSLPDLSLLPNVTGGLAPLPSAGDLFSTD
Description: After adherence, cells were treated with 10 μM PRTC for 24 h. The cells were then gently washed three times with warm PBS, fixed with 4% paraform and incubated with 0.25% Triton X-100 in PBST. Next, the cells were blocked in 5% BSA for 1 h at room temperature and incubated with an antibody against CREPT at 4 °C overnight. Cells were washed 3 times with PBST (0.1% Tween-20) and incubated with TRITC-labeled goat anti-mouse IgG antibody (Jackson ImmunoReseach) at a dilution rate of 1:100 at room temperature for 1 h. Coverslips were imaged by a confocal laser scanning microscope (OLYMPUS).
(§1) To address whether PRTC could induce CREPT degradation, we examined the endogenous protein level of CREPT in Panc-1, AsPc-1 and MIA-PaCa-2 cells in the presence of different dosages of PRTC. […] Consistently, treatment with PRTC led to decreases in CREPT protein at different times (Figure 5B, S3A). […] To further visualize the degradation process, we stained the endogenous CREPT protein with an antibody against CREPT in the cells treated with FITC-labeled PRTC.

[2] = Circular dichroism (CD) spectroscopy; assay type: physicochemical; conditions: 0.1 mg/mL in deionized water, room temperature
Description: All peptides were dissolved in the deionized water at a final concentration of 0.1 mg/mL. The CD spectra were measured by using a 1 nm bandwidth with a 1 nm step resolution from 190 to 260 nm at room temperature (Jasco spectropolarimeter, Japan). Final spectra were obtained from the average of three parallel scans after subtracting a spectrum of deionized water recorded under the same conditions. Each sample was scanned thrice and the averaged spectrum was smoothed. The helicity were calculated by CDNN 2.1 [59], [60].

[3] = target: T2, ubiquitinated CREPT in Panc-1 cells (Homo sapiens, UniProt Q9NQG5); assay: Endogenous IP of CREPT with ubiquitin (Co-IP); assay type: cell-based; conditions: 10 μM peptide for 24 h, IP: CREPT, IB: anti-ubiquitin
T2 construct: endogenous protein level of CREPT in Panc-1, AsPc-1 and MIA-PaCa-2 cells; endogenous in cells; host or cells: Panc-1, AsPc-1, MIA PaCa-2
T2 sequence (Q9NQG5 1-326): T1 sequence (Q9NQG5 1-326)
Description: (§2) For exogenous immunoprecipitation assays, HEK293T cells were plated in 60 mm dishes and then transfected with the indicated plasmids. After 24 h, cells were harvested using RIPA buffer (50 mM Tris-HCl pH 8.0, 2 mM EDTA pH 8.0, 150 mM NaCl, 1% NP-40, 0.5% sodium deoxycholate, 0.1% SDS) with mixed protease inhibitors. Cell lysates were incubated with 2 μg of the indicated antibodies and 30 μL of protein A/G-Sepharose beads at 4 °C overnight. Beads were eluted five times with lysis buffer (50 mM Tris-HCl pH 7.6, 1 mM EDTA pH 8.0, 165 mM NaCl, 0.5% NP-40), and thereafter, a western blot assay was performed to analyze the association by using the indicated antibodies. Western blot was performed as previously reported. Anti-β-actin and anti-Flag antibodies were purchased from Sigma. Anti-Myc antibody was purchased from Santa Cruz Biotechnology. Antibody against CREPT was produced in the laboratory.
In addition, a Co-IP experiment was performed in Panc-1 cells treated with 10 μM PRTC, PRTC-m or PRTC-v for 24 h. […] In the absence of MG132, the level of ubiquitinated CREPT was further increased by PRTC (Figure 6C, compare lane 1 and lane 2).
Figure 6 The degradation of CREPT by PRTC is dependent on its VHL ligand. (A) Immunoblot of CREPT following 24 h incubation with different dosages of PRTC or PRTC-v in Panc-1 cells. (B) Immunoblot of CREPT exposed to 10 μM PRTC or PRTC-v for different time points in Panc-1 cells. (C) Endogenous IP experiment of CREPT with ubiquitin treated with 10 μM PTRC, PTRC-m or PTRC-v in Panc-1 cells. IP: CREPT, IB: Anti-ubiquitin.

AsPc-1 cells = assay: Cell proliferation assay (CCK-8); assay type: cell-based; conditions: 10 μM
Description: (§3) Cells were seeded into 96-well plates (1000 cells per well) and cultured for the indicated times. Cell viability was evaluated using a CCK-8 kit (Solarbio, Beijing, China). The value of OD450 was calculated by spectrophotometer and presented as the mean ± standard deviation (SD) from three individual experiments. […]
CellproliferationassayofAsPc-1cellstreatedwith deionizedwater(Ctrl), 10μMPRTC,10μM […]
(§4) (1 picture or pasted object on this page, not shown here)

MIA PaCa-2 cells = assay: Cell proliferation assay (CCK-8); assay type: cell-based; conditions: 10 μM
Description: as §3
PaCa-2cells treatedwith deionizedH 2O(Ctrl),10μMPRTC, PRTC-mandPRTC-v. […]
as §4

[4] = target: T1, endogenous CREPT protein in Panc-1 cells; assay: Western blot of endogenous CREPT (degradation); assay type: cell-based; conditions: different dosages (24 h) or time points (10 μM)
Description: as §2, §1
Figure 5 PRTC induces the ubiquitination and proteasome- dependent degradation of the endogenous CREPT protein. (A) Immunoblot of CREPT following 24 h incubation with different dosages of PRTC or PRTC-m in Panc-1 cells. (B) Immunoblot of CREPT exposed to 10 μM PRTC or PRTC-m for different times in Panc-1 cells. (C) Western blot analysis of CREPT following 24 h incubation with 10 μM PTRC in Panc-1 cells. MG132 is an inhibitor of proteasome activity. (D) Immunofluorescence visualization of Panc-1 cells after treatment with PRTC for 24 h. Cells were stained with anti-CREPT antibody. Scale bars, 20 μm.

localization of FITC labeled peptides in the cells (Panc-1 cells; 10 μM FITC labeled peptides) | subcellular localization (Panc-1 cells; increasing concentration and incubation time, repeated in AsPc-1 and MIA PaCa-2 cells) | endogenous CREPT protein at 24 h [1] | secondary structure by CD spectrum [2] | Helicity ([2]; 190 to 260 nm, average of three scans, calculated by CDNN 2.1) [%] | ubiquitinated CREPT proteins [3] | degradation of endogenous CREPT protein [4] | Substance | cell proliferation (AsPc-1 cells) | cell proliferation (MIA PaCa-2 cells)
strong localization | localized into the nucleus | almost completely depleted | – | – | – | – | FITC-AHX-IYP (OH) AL-AHX-KDVLSEKEKKLEEYKQKLARV-RRRRK [FITC-PRTC, fluorescein isothiocyanate (FITC) labeled PRTC] | – | –
– | – | – | α-helix structure | 42.2 | unable to mediate the accumulation | failed to degrade | KDVLSEKEKKLEEYKQKLARV-RRRRK [PRTC-v, PRTC without the VHL ligand] | failed | failed

Reference: PMC7069095, “A cell-permeable peptide-based PROTAC against the oncoprotein CREPT proficiently inhibits pancreatic cancer” (Theranostics, 2020)
